Data taken from article PMC3433420 (PLoS ONE, 2012).
Residues, ends and D or L forms follow the SMILES beside them.

What was measured:
PTK6 SH2 domain = biological target: T1, PTK6 SH2 domain (Homo sapiens, UniProt Q13882); experiment: FP saturation binding assay; settings: protein PTK6; FP, high-confidence ErbB interactions; mean of replicate hits
T1 construct: from the PTK6 SH2 domain; 6X His; thioredoxin; made in house; host or cells: E. coli BL21(DE3)pLysS
Experimental: (See Figure 1A) Rhodamine-labeled peptides were dissolved in assay buffer (20 mM HEPES, 100 mM KCl, 0.1% Tween-20, 5 mM DTT, pH 7.8), diluted to a concentration of 20 nM, and plated into black 384-well plates (Corning, Corning, NY) at 5 µL/well using a Perkin Elmer EP3 pipetting workstation (V&P Scientific, Inc., San Diego, CA). SH2, PTB, and thioredoxin control proteins were plated into the first column of 2 mL 96-well plates (Corning) at a concentration of 20 µM and serially diluted 1∶2 into freezing buffer (300 mM NaCl, 50 mM Na2PO4, pH 8, 20% glycerol v/v) eleven times using a Tecan Freedom EVO 100 workstation (Tecan, Männedorf, Switzerland). For the interaction assay, 5 µL of each of the twelve protein concentrations was added to the peptide-containing 384-well plates via the EP3 resulting in a protein dilution range of 0.002–10 µM and a final volume of 10 µL; peptide concentration was fixed at 10 nM. Peptide/protein samples were incubated for 20 minutes at room temperature in the dark and fluorescence polarization (FP) was measured in an Analyst GT multimode reader (Molecular Devices, Sunnyvale, CA) with excitation and emission wavelengths of 530 nm and 555 nm, respectively. Experimental values were output as millipolarization (mP) units and imported into MATLAB (The MathWorks, Inc., Natick, MA) in which equation (1) was used to determine dissociation constants (KDs) for each protein/peptide pairing by least squares nonlinear regression. [drawing 1] (1)
FP was described by the following equation: P=Iparallel-IperpendicularIparallel+Iperpendicular, where “P” denotes polarization, and “I” denotes the fluorescent intensity relative to the plane of incident light. Experimental values were output as millipolarization (mP) units and imported into MATLAB where the following equation was used to determine dissociation constants (KDs) for each protein/peptide pairing by least squares nonlinear regression:
Pobs=Pmax∙ProteinKD+Protein [picture] (1)
Peptides were initially tested for systematic plate effects across protein dilutions and nonspecific binding to thioredoxin by linear regression analysis and any effects were regressed out. The median baseline control polarization value for each plate was then subtracted from each data point to make each binding curve intersect at zero. Plates with excessive variation in baseline control polarizations on both a global and run-specific manner (Dixon’s Q test, p < 0.05) were excluded from further analysis. Outliers in each binding curve were identified and removed using an iterative procedure as follows. The residuals for each fit were used to calculate a global standard deviation of the residuals (GSDR) for each concentration of SH2 domain over all interactions, and individual data points with residuals < or > two GSDR from the global mean residual were flagged as outliers. The outlier with the largest residual from each interaction was removed and nonlinear regression was again performed. This procedure was repeated if additional outliers were identified for an interaction, discarding the interaction if the number of outliers exceeded three. […] In order to further control our false positive rate against hidden confounding variables producing binding artifacts, we sought to determine whether there was a significant relationship between the strength of an interaction and its technical replication rate at our stringent significance and filtering thresholds. We performed logistic regression on the proportion of successful replicates for each interaction query against KD for all interactions (Figure S15A). […] This is related to the observation that the majority of interactions detected by FP are tight (Figure S15B). With this logit model, we assigned a probability to each peptide-protein interaction in our data by using a binomial proportions test to compare the observed versus the expected replication rate at the particular KD of that interaction (Table S4). […]

HSH2D SH2 domain = biological target: T2, HSH2D SH2 domain (Homo sapiens, UniProt Q96JZ2); experiment: FP saturation binding assay
T2 sequence (Q96JZ2 34-125 limits assumed): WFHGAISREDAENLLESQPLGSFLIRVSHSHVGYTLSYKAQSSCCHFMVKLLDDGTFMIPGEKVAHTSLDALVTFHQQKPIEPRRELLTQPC

SH2 and PTB domains [1] = biological target: T3, SH2 and PTB domains (Homo sapiens, UniProt P07947); experiment: In-house protein microarrays (with or without 5 mM DTT), protein named per line; assay type: binding; settings: protein YES1, array fabrication # 39336
T3 construct: thioredoxin; made in house; host or cells: BL21(DE3)pLysS E. coli
Experimental: (§1) 300 pL of purified recombinant proteins and a thioredoxin tag control were spotted at a concentration of ∼40 µM in duplicate onto aldehyde-coated microscope slides (Erie Scientific Company, Portsmouth, NH) using a Nano-Plotter (NP) 2.1/E noncontact microarrayer (GeSiM, Munich, Germany). 16 identical microarrays per slide were printed in a 2×8 (column by row) format with distances of 9 mm between individual arrays; each array consisted of a 14×14 configuration of spots 400 µm apart. Following printing at a constant humidity level of 50%, slides were desiccated overnight and stored at −80°C. For peptide probing, array slides were transferred to 96-well microplates (TeleChem International, Inc., Sunnyvale, CA) and sandwiched with silicone gaskets. Prior to peptide addition, aldehyde sites were quenched with buffer B (20 mM HEPES, 100 mM KCl, 0.1% Tween-20, 5 mM DTT, pH 7.8) containing 1% bovine serum albumin (BSA) (w/v) for one hour at room temperature; moderate agitation was applied in a plate shaker (IKA, Germany) to displace glycerol from the surface area of protein sample spots. […] The arrays were subsequently washed once with 300 µL of buffer B and once with 300 µL of ddH2O. Residual water was removed by centrifugation; slides were stored under desiccation in the dark until analysis.
(§2) Microarray slides were scanned at a resolution of 10 µm using a GenePix 4000B microarray scanner and analyzed using GenePix Pro v6.0 software (Molecular Devices, Sunnyvale, CA). To independently visualize protein spots irrespective of peptide binding, samples were printed simultaneously with 400 nM of Cyanine-5 (Cy5) labeled bovine serum albumin (BSA). […] Following spot layout identification via Cy5 labeled BSA, the mean fluorescence intensity of rhodamine for duplicate protein spots was quantified and normalized by subtracting the corresponding mean fluorescence intensity of thioredoxin. Normalized fluorescence values were then imported into MATLAB and KDs determined as previously described.

SH2 and PTB domains [2] = biological target: T4, SH2 and PTB domains (Homo sapiens, UniProt P16885); experiment: as above; assay type: binding; settings: protein PLCG2-NC, array fabrication # 39336
T4 construct: thioredoxin; made in house; host or cells: BL21(DE3)pLysS E. coli
T4 sequence (P16885 1-1265): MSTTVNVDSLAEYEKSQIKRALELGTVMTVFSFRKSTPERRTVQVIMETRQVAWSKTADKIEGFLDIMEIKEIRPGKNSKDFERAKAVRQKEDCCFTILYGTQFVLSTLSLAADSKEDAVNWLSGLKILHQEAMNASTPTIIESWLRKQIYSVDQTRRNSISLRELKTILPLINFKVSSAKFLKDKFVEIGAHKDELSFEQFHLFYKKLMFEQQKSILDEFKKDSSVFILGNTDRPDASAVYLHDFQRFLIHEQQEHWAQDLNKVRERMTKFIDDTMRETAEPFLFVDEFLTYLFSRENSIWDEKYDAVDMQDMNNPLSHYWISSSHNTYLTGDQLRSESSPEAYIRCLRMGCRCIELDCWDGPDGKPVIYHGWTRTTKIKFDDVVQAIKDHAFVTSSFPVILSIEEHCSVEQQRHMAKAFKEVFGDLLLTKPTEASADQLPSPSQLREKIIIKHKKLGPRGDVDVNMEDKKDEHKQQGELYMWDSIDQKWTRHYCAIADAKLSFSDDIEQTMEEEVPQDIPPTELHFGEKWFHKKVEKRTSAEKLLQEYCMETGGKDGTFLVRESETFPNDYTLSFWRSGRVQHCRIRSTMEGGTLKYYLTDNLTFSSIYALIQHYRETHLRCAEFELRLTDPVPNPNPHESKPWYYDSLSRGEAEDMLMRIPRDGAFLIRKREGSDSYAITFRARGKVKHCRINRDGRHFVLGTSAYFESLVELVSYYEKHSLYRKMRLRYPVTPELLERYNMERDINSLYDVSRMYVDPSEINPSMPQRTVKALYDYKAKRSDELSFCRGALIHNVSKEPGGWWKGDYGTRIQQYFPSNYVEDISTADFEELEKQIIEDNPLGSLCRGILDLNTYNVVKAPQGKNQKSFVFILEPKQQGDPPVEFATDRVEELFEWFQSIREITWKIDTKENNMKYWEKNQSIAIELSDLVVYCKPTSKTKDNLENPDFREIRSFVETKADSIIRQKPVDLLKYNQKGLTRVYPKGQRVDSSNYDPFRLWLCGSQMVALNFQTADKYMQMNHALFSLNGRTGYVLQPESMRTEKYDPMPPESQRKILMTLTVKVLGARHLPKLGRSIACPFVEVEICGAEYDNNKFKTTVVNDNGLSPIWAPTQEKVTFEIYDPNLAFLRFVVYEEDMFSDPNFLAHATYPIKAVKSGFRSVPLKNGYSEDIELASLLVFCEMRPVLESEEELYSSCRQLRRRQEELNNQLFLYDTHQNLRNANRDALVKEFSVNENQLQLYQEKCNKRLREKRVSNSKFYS
Experimental: as §1, §2

SH2 and PTB domains [3] = biological target: T5, SH2 and PTB domains (Homo sapiens, UniProt P42684); experiment: as above; assay type: binding; settings: protein ABL2, array fabrication # 39336
T5 construct: thioredoxin; made in house; host or cells: BL21(DE3)pLysS E. coli
Experimental: as §1, §2

SH2 and PTB domains [4] = biological target: T6, SH2 and PTB domains (Homo sapiens, UniProt P43405); experiment: as above; assay type: binding; settings: protein SYK-NC, array fabrication # 39336
T6 construct: thioredoxin; made in house; host or cells: BL21(DE3)pLysS E. coli
Experimental: as §1, §2

SH2 and PTB domains [5] = biological target: T7, SH2 and PTB domains (Homo sapiens, UniProt P51451); experiment: as above; assay type: binding; settings: protein BLK, array fabrication # 39336
T7 construct: thioredoxin; made in house; host or cells: BL21(DE3)pLysS E. coli
Experimental: as §1, §2

SH2 and PTB domains [6] = biological target: T8, SH2 and PTB domains (Homo sapiens, UniProt P78314); experiment: as above; assay type: binding; settings: protein SH3BP2, array fabrication # 39336
T8 construct: thioredoxin; made in house; host or cells: BL21(DE3)pLysS E. coli
T8 sequence (P78314 1-561): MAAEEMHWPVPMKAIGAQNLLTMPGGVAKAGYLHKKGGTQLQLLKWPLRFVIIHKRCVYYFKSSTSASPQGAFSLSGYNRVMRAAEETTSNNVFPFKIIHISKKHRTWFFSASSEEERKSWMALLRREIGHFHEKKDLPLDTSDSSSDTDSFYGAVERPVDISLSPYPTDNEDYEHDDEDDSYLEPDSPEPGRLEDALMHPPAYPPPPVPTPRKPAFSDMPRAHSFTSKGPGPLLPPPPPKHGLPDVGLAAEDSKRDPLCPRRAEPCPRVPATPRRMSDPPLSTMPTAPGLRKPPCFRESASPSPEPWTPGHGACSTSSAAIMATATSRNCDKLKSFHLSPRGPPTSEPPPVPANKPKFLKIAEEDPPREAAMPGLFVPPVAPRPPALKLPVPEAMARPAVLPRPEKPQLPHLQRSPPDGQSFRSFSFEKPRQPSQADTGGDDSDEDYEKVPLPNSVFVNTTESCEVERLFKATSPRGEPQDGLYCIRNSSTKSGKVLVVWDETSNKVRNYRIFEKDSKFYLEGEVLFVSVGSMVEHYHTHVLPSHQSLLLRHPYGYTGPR
Experimental: as §1, §2

T5 sequence (P42684 whole entry, the tested form may be a part): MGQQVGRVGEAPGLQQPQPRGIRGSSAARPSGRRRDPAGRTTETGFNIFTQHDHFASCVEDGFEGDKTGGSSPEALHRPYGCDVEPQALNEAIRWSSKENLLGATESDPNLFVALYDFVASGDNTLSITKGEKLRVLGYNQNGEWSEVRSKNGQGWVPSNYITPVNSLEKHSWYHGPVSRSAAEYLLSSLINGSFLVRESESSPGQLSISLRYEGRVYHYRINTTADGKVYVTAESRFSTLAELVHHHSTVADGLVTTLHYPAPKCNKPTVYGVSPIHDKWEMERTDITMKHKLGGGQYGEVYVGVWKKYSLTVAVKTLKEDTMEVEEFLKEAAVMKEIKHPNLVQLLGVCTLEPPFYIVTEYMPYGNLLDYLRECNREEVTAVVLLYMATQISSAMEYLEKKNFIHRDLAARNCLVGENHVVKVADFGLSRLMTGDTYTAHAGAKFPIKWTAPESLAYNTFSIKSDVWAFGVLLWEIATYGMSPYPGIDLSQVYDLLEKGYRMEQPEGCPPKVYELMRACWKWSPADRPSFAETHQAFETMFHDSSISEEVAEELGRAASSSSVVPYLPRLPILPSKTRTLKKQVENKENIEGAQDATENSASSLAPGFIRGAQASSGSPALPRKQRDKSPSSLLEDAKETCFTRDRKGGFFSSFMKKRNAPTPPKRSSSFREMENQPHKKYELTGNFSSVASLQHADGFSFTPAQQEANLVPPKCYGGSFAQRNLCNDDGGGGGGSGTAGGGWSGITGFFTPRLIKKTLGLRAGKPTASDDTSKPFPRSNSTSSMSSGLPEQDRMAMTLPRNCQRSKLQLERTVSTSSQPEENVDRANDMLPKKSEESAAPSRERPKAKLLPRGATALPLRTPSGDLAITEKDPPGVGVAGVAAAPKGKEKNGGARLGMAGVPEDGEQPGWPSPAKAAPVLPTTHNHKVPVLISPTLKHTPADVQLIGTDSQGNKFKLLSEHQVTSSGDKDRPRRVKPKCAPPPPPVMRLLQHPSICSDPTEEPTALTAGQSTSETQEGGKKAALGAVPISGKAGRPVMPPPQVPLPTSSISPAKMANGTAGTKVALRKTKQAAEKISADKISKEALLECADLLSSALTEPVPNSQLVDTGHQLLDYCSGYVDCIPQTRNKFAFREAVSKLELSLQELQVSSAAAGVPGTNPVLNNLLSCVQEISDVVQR
T3 sequence (P07947 whole entry, the tested form may be a part): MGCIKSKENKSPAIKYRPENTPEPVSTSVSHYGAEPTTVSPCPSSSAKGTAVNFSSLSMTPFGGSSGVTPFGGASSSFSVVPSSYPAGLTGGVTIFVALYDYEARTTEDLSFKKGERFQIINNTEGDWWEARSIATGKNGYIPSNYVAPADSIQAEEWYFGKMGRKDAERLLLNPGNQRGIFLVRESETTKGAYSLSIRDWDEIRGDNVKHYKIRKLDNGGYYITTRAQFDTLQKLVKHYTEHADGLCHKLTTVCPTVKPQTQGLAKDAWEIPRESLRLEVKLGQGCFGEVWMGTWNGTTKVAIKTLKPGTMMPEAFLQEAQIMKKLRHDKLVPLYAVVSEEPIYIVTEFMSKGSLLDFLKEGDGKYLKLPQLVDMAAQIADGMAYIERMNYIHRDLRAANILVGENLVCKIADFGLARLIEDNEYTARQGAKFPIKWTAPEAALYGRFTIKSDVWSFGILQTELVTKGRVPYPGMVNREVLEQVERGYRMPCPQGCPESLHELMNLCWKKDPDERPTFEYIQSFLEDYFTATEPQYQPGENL
T7 sequence (P51451 whole entry, the tested form may be a part): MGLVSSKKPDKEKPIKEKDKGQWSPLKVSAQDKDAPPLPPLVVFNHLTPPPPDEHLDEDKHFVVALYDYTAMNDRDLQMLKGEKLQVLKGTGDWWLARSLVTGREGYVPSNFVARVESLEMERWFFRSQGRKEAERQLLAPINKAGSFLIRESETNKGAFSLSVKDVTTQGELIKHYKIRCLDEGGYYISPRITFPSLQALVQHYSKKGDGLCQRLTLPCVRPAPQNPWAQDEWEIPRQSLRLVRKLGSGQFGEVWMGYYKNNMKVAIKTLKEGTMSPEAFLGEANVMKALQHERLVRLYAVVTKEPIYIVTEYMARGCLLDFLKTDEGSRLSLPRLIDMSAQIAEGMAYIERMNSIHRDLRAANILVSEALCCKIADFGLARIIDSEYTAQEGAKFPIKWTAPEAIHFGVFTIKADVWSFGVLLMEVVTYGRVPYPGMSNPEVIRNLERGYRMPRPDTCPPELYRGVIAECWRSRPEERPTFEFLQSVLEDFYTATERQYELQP
T1 sequence (Q13882 78-170 limits assumed): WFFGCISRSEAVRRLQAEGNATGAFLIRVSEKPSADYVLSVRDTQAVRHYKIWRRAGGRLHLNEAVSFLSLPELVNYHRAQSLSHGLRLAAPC

Compound	Kd (PTK6 SH2 domain) [µM]	Kd (HSH2D SH2 domain) [µM]	Kd (SH2 and PTB domains [1]; PM assay replicate # 39341) [µM]	Kd (SH2 and PTB domains [1]; PM assay replicate # 39342) [µM]	Kd (SH2 and PTB domains [2]; PM assay replicate # 39341) [µM]	Kd (SH2 and PTB domains [2]; PM assay replicate # 39342) [µM]	Kd (SH2 and PTB domains [3]; PM assay replicate # 39341) [µM]	Kd (SH2 and PTB domains [3]; PM assay replicate # 39342) [µM]	Kd (SH2 and PTB domains [4]; PM assay replicate # 39341) [µM]	Kd (SH2 and PTB domains [4]; PM assay replicate # 39342) [µM]	Kd (SH2 and PTB domains [5]; PM assay replicate # 39341) [µM]	Kd (SH2 and PTB domains [5]; PM assay replicate # 39342) [µM]	Kd (SH2 and PTB domains [6]; PM assay replicate # 39341) [µM]	Kd (SH2 and PTB domains [6]; PM assay replicate # 39342) [µM]
C[C@H](NC(=O)[C@H](CC(N)=O)NC(=O)[C@H](Cc1c[nH]cn1)NC(=O)[C@H](Cc1ccc(OP(=O)(O)O)cc1)NC(=O)[C@H](CCC(=O)O)NC(=O)[C@@H]1CCCN1C(=O)[C@H](CC(N)=O)NC(=O)[C@@H](N)CC(=O)O)C(=O)N[C@@H](CO)C(=O)N[C@@H](CC(N)=O)C(=O)NCC(=O)N1CCC[C@H]1C(=O)N[C@@H](CC(=O)O)C(=O)O [ErbB4 1188 13-mer] (HELM PEPTIDE1{D.N.P.E.[O=C([C@H](Cc1ccc(OP(=O)(O)O)cc1)N[*:1])[*:2]].H.N.A.S.N.G.P.D}$$$$V2.0)	9.42	3.05	–	–	–	–	–	–	–	–	–	–	–	–
CC(C)C[C@H](NC(=O)[C@@H](NC(=O)[C@@H](NC(=O)CNC(=O)[C@@H]1CCCN1)[C@@H](C)O)C(C)C)C(=O)N1CCC[C@H]1C(=O)N1CCC[C@H]1C(=O)N1CCC[C@H]1C(=O)N1CCC[C@H]1C(=O)N[C@@H](Cc1ccc(OP(=O)(O)O)cc1)C(=O)N[C@@H](CCCNC(=N)N)C(=O)N[C@@H](Cc1c[nH]cn1)C(=O)N[C@@H](CCCNC(=N)N)C(=O)N[C@@H](CC(N)=O)C(=O)N[C@H](C(=O)N[C@H](C(=O)N[C@H](C(=O)N[C@@H](CC(=O)O)C(=O)O)C(C)C)C(C)C)[C@@H](C)O [ErbB4 pY1301 (18-mer)] (HELM PEPTIDE1{P.G.T.V.L.P.P.P.P.[O=C([C@H](Cc1ccc(OP(=O)(O)O)cc1)N[*:1])[*:2]].R.H.R.N.T.V.V.D}$$$$V2.0)	–	–	1.37	4.86	0.81	8.37	1.03	0.00068	0.80	1.17	1.18	1.60	1.18	1.61
